Test results: patent US5866576A, “Epoxide-containing compounds” (Cell Therapeutics, Inc., priority 1997, dated 1999)

Columns and labels:
Ramos B-cell tumor line = test: B-cell proliferation, Ramos line stimulated with anti-mu or PMA (FIG. 3); format: cell-based, human; conditions: 250 μM, anti-mu or PMA (5 nM)
Procedure: A Ramos […] tumor line was treated with 250 μM 1808 or 1605 for one hour prior to stimulation of proliferation with anti-mu antibody or phorbol myristic acid (PMA, 5 nM). One day later, proliferation was measured with tritiated thymidine.
This example illustrates a comparison of inventive compounds nos. 1605 and 1808 for inhibition of B-cell proliferation. A Ramos B-cell tumor line was treated with 250 μM 1808 or 1605 for one hour prior to stimulation of proliferation with anti-mu antibody or PMA (5 nM). One day later, proliferation was measured with tritiated thymidine.

[1] = system: vascular cell adhesion molecule-1 (VCAM) in human umbilical vein endothelial cells (HUVEC); test: cell surface expression of VCAM in TNF-α stimulated HUVEC, flow cytometry (FIG. 6); format: cell-based; conditions: TNF-α 20 ng/ml, 20 hrs
Procedure: The HUVEC cells were stimulated with 20 ng/ml TNF-α for 20 hrs and then stained for immunofluorescence using a monoclonal antibody recognizing VCAM, followed by a goat anti-mouse antibody conjugated to phycoerythrin. The cells were analyzed for antibody binding using flow cytometry.
This example illustrates the effects of inventive compounds nos. 1605, 1808 and 1906 to inhibit cell surface expression of vascular cell adhesion molecule-1 (VCAM) in human umbilical vein endothelial cells (HUVEC). The HUVEC cells were stimulated with 20 ng/ml TNF-α for 20 hrs and then stained for immunofluorescence using a monoclonal antibody recognizing VCAM, followed by a goat anti-mouse antibody conjugated to phycoerythrin. The cells were analyzed for antibody binding using flow cytometry.

human stromal cells = test: PDGF-induced proliferation of human stromal cells (FIG. 4); format: cell-based; conditions: PDGF-BB 50 ng/ml
Procedure: (§1) Human stromal cells were starved in serum-free media for 24 hours and then stimulated with 50 ng/ml of PDGF-BB. The drugs were added at various indicated concentrations one hour prior to PDGF stimulation. Tritiated thymidine was added for 24 hrs at the time of PDGF stimulation to measure cellular proliferation. Background counts were approximately 5% of control levels.
as §1, with “This example illustrates a comparison of inventive compounds nos. 1605, 1808 and 1906 on PDGF-induced (platelet derived growth factor) proliferation of human stromal cells. Human” for “Human”, “hours” for “hrs”

[2] = system: PBMC (peripheral blood mononuclear cells); test: two-way mixed lymphocyte reaction, PBMC (FIG. 1); format: cell-based; conditions: for potency in mixed lymphocyte reaction compared with PTX: PTX not shown on graph
Source text: This example illustrates the effects of inventive compounds nos. 1605, 1808 and 1906 as immune modulators in a mixed lymphocyte reaction. […] 1605, 1808 and 1906.

[3] = system: U937 cells; human umbilical vein endothelial cells (HUVEC); test: adhesion of U937 cells to TNF-α activated HUVEC (FIG. 5); format: cell-based; conditions: TNF-α 20 ng/ml, 12 hours
Procedure: HUVEC cells were activated with 20 ng/ml of TNF for 12 hrs. Drug was added to each culture (except for controls) one hour prior to adding TNF. U937 cells, preloaded with the fluorescent dye BCECF, were added to each culture well and then washed. Cell adhesion was determined on a fluorescence plate reader, showing a decrease in cell adhesion caused by all three drugs in a dose dependent fashion.
This example illustrates a comparison of the effects of inventive compounds nos. 1605, 1808 and 1906 to inhibit adhesion of U937 cells to activated human umbilical vein endothelial cells (HUVEC). HUVEC cells (4000/ well, seeded 72 hours in advance) were activated with 20 ng/ml of TNF-α for 12 hours. Drug was added to the HUVEC (except for controls) one hour prior to adding TNF-α. U937 cells, preloaded with the fluorescent dye BCECF, were added to each culture well and then washed twice with PBS. Cell adhesion was determined by measuring the fluorescence of adhering U937 cells on a fluorescence plate reader.

thymocytes [4] = test: thymocyte proliferation co-stimulated with Con A and/or IL-1α (FIG. 2); format: cell-based, Balb/C mice; conditions: three dose levels
Procedure: The thymocytes were obtained from normal female Balb/C mice and stimulated with Concanavalin A (Con A) and/or interleukin-1 alpha (L-1α). Drugs were added to the cell cultures two hours before activation with Con A and/or IL-1α.
This example illustrates a comparison of three dose levels of inventive compounds nos. 1808 and 1906 and no drug control to inhibit thymocyte proliferation. The thymocytes were obtained from normal female Balb/C mice and co-stimulated with Concanavalin A (Con A) and/or IL-1α (interleukin-1 alpha). The thymuses were dissociated and plated into 96-well plates at a density of 2×10^5 cells/well. Dilutions of Con A and/or IL-1α were added to the wells and the cells were incubated for 4 days at 37° C. Drugs were added to the cell cultures two hours before activation with Con A and/or IL-1α. On day 4, the cells were pulsed with tritiated thymidine and allowed to incubate an additional 4 hrs. The cells were harvested and counted.

thymocytes [5] = test: murine thymocyte proliferation assay co-stimulated by ConA and IL-2 (FIGS. 7A-7E); format: cell-based, Balb/C mice; conditions: Mus musculus, FIG. 7A
Source text: This example illustrates dose response curves used to generate 50% inhibition concentrations (IC50) for inventive compounds nos. 1410, 1439, 1541, 1553, 1553S, 1560, 1565, 2548R, 2548S and 2562 in a murine thymocyte proliferation assay, co-stimulated by Concanavalin A (ConA) and interleukin-2 alpha (IL-2). ConA, used to activate the T-cell receptor (TCR), along with IL-2 co-stimulation, induces T-cell proliferation and differentiation. Thymuses, obtained from normal, female Balb/C mice, were dissociated and plated into 96-well plates at a density of 2×10^5 cells/well. ConA (0.25 mg/ml) and IL-2 (15 U/ml) were added to the wells. The cells were incubated for 4 days at 37° C. On day 4, the cells were pulsed with tritiated thymidine and incubated for an additional 4 hours. The amount of tritiated thymidine incorporated by the harvested cells was determined in a liquid scintillation counter. Doses of inventive compounds (shown in FIGS. 7A-7E) were added two hours prior to ConA and IL-2 activation. Background counts were less than 200 cpm. Results obtained, illustrate the ability of the inventive compounds to inhibit thymocyte proliferation and activation. In FIG. 7A, inventive compounds nos. […] FIG. 7B presents additional data for compound no. 1410 and 1553S in this assay. […] FIG. 7C reports assay results for inventive compounds nos. 1439, 1541, 1560 and 1565. […] FIGS. 7D and 7E illustrate assay results for inventive compounds nos. 1541, 1553, 1560 and 1565 (FIG. 7D) and 2562, […] (FIG. 7E). As is true of other inventive compounds tested, all these compounds represented in FIGS. 7D and 7E inhibit thymocyte proliferation. […] 1541, 1553, 1560, 1565, 2562, 2548R and 2548S, respectively.

[6] = system: LPS-induced TNF release in whole human blood; test: LPS-induced TNF release in whole human blood (FIG. 14); format: cell-based; conditions: LPS 10 ng/ml, read-out: inhibition of TNF-α induction
Procedure: This example illustrates inhibitive effects of the inventive compounds on LPS-induced TNF release. Data collected is reported as percent inhibition of LPS induced TNF release in whole human blood as compared with control values of TNF release.
In this assay, whole blood was collected from a healthy human donor into Vacutainer tubes containing ACD citrate anti-coagulant. Compounds to be tested were diluted in RPMI medium and added (5 μl) to tubes containing whole blood (225 μl). The tubes were mixed and incubated for a maximum of 1 hour at 37° C. LPS Salmonella abortus equi was diluted in RPMI and added to samples at 20 μl per tube (10 ng/ml final concentration). The prepared tubes were mixed and incubated for 4-6 hours at 37° C. The reaction was terminated by adding 750 μl of RPMI to each tube, then centrifuged to remove cells. Supernatants are collected and stored overnight at 4° C. Supernatant samples are assayed for TNF release using commercial immunoassay kits.

Balb/3T3 cells [7] = test: PDGF-stimulated Balb/3T3 cell proliferation; format: cell-based; conditions: FIGS. 8A (1409), 8B (1560); PDGF/BB
Procedure: Balb/3T3 cells respond vigorously to PDGF stimulation, and are useful in vitro models for further study of PDGF-induced proliferation. Disregulated PDGF-proliferative response has been linked to a variety of diseases, including, e.g., restenosis, atherosclerosis, fibrosis, and tumor cell angiogenesis.
Balb/3T3 cells were maintained in exponential growth. The cells were removed from a flask with EDTA and plated into 96 well plates at 3000 cells/well. After 48 hours, the media was removed, the cells washed once with PBS and serum free media and the cultures allowed to rest for a 24 hour period. Inventive compounds were added to the wells containing media and Balb/3T3 cells one hour prior to incubation with PDGF/BB, added at constant 10 μM concentrations along with 1 μ Ci 3-H-thymidine dye. Cells were subsequently incubated for 18-24 hours, harvested, and incorporated thymidine assessed on a Packard Topcount to determine degree of cell proliferation. Data obtained in this assay was used to determine experimental 50% inhibition concentrations for the inventive compounds tested.

Balb/3T3 cells [8] = test: Balb/3T3 cytotoxicity assay (BCECF-AM); format: cell-based; conditions: FIGS. 8C, 8D
Procedure: In conjuction with the Balb/3T3 proliferation assay conducted above, a Balb/3T3 cytotoxicity assay was conducted to determine that the inhibition on proliferation was not due to cytotoxic effects. This assay is similar to the assay decribed above except tritiated thymidine was not added and after 18-24 hours incubation with PDGF/BB and a lOuM solution of 2,7-bis-(2-carboxyethyl)-5(and-6)carboxyflouresceinacetoxymethyl ester (BCECF-AM) was added for 30 minutes at 37° C. (BCECF is a compound that when cleaved by esterases, yields a fluorescent product in viable cells only, therefore providing a measure of viable cell numbers). Following sufficient incubation, BCECF is replaced with PBS and the plate examined with flourescence in a Millipore "cytofluor." The data is compiled and plotted.

| Compound | inhibition of B-cell proliferation (Ramos B-cell tumor line) | mean fluorescence (VCAM surface expression) [1] | inhibition of PDGF-induced proliferation (human stromal cells) | activity in mixed lymphocyte reaction (immune modulation) [2] | potency in mixed lymphocyte reaction compared with PTX [2] | inhibition of U937 cell adhesion to HUVEC [3] | inhibition of thymocyte proliferation (thymocytes [4]) | IC50 (thymocytes [5]) [µM] | inhibition at 50 µM [6] [%] | inhibition of Balb/3T3 proliferation (Balb/3T3 cells [7]) | cytotoxic effects (Balb/3T3 cells [8]) |
| --- | --- | --- | --- | --- | --- | --- | --- | --- | --- | --- | --- |
| Cn1ccc(=O)n(CCCCC2CO2)c1=O (centres unmarked) [Compound 1808, 3-(5,6-Oxidohexyl)-1-methyluracil] | inhibited proliferation | Mean fluorescence levels were decreased | inhibited PDGF-induced stimulation in a dose response fashion | demonstrated activity | more potent than PTX | decrease in cell adhesion induced by TNF-α in a dose dependent fashion | inhibited thymocyte proliferation is a dose-dependent fashion | 99 |  |  |  |
| CCCCCCCCC1OC1CCCCCCCCn1c(=O)c2c(ncn2C)n(C)c1=O (centres unmarked) [Compound 2541, 1-(9,10-Oxidooctadecyl)-3,7-dimethylxanthine] |  |  |  |  |  |  |  |  | 25 |  |  |
| Cn1c(=O)n(CCCCCCCC2CO2)c(=O)c2c1ncn2COC(=O)C(C)(C)C (centres unmarked) [Compound 1409, 1-(8,9-Oxidononyl)-3-methyl-7-methylpivaloylxanthine] |  |  |  |  |  |  |  |  |  | inhibit Balb/3T3 proliferation | without exhibiting cytotoxic effects |
| O=C1CCCC(=O)N1CCCCC1CO1 (centres unmarked) [Compound 1605, N-(5,6-Oxidohexyl) glutarimide] | inhibited proliferation | Mean fluorescence levels were decreased | inhibited PDGF-induced stimulation in a dose response fashion | demonstrated activity | more potent than PTX | decrease in cell adhesion induced by TNF-α in a dose dependent fashion |  |  |  |  |  |
